Laboratory results: a compilation of properties of binary mixtures (doi:10.1016/j.molliq.2021.118139)

Assay: xn = mol fraction of the nth substance listed
Settings: 100 kPa

Q: Which electrical conductivity (293.15 K, x1 = 0.1667) does the source give for `CC[N+](CC)(CC)CC.[Cl-]` + OCCOCCOCCO here?
A: Its electrical conductivity is 0.16 S/m.

Q: What about the viscosity (293.15 K, x1 = 0.1667) of the same molecule?
A: The viscosity was 80 mPa·s.

Q: And the electrical conductivity (293.15 K, x1 = 0.25)?
A: The electrical conductivity was 0.194 S/m.

Q: What about the viscosity (293.15 K, x1 = 0.25) of the same molecule?
A: The viscosity was 117 mPa·s.

Q: What about the electrical conductivity (303.15 K, x1 = 0.1667) of the same molecule?
A: Its electrical conductivity is 0.226 S/m.

Q: And the viscosity (303.15 K, x1 = 0.1667)?
A: Its viscosity is 55.9 mPa·s.

Q: And the electrical conductivity (303.15 K, x1 = 0.25)?
A: The electrical conductivity was 0.276 S/m.

Q: And the viscosity (303.15 K, x1 = 0.25)?
A: Its viscosity is 77 mPa·s.

Q: What about the electrical conductivity (313.15 K, x1 = 0.1667) of the same molecule?
A: Its electrical conductivity is 0.313 S/m.

Q: What about the viscosity (313.15 K, x1 = 0.1667) of the same molecule?
A: The viscosity was 40 mPa·s.

Q: And the electrical conductivity (313.15 K, x1 = 0.25)?
A: Its electrical conductivity is 0.384 S/m.

Q: And the viscosity (313.15 K, x1 = 0.25)?
A: Its viscosity is 52.1 mPa·s.

Q: What about the electrical conductivity (323.15 K, x1 = 0.1667) of the same molecule?
A: The electrical conductivity was 0.424 S/m.

Q: And the viscosity (323.15 K, x1 = 0.1667)?
A: The viscosity was 29.2 mPa·s.

Q: And the electrical conductivity (323.15 K, x1 = 0.25)?
A: Its electrical conductivity is 0.524 S/m.

Q: What about the viscosity (323.15 K, x1 = 0.25) of the same molecule?
A: Its viscosity is 36.1 mPa·s.

Q: And the electrical conductivity (333.15 K, x1 = 0.1667)?
A: Its electrical conductivity is 0.564 S/m.

Q: What about the viscosity (333.15 K, x1 = 0.1667) of the same molecule?
A: Its viscosity is 21.7 mPa·s.

Q: What about the electrical conductivity (333.15 K, x1 = 0.25) of the same molecule?
A: Its electrical conductivity is 0.702 S/m.

Q: What about the viscosity (333.15 K, x1 = 0.25) of the same molecule?
A: Its viscosity is 25.6 mPa·s.

Q: What does the source list for `CCCC[N+](CCCC)(CCCC)CCCC.[Cl-]` + Oc1ccccc1?
A: electrical conductivity (293.15 K, x1 = 0.1667): 0.0802 S/m; viscosity (293.15 K, x1 = 0.167): 91.3 mPa·s; electrical conductivity (303.15 K, x1 = 0.1667): 0.117 S/m; viscosity (303.15 K, x1 = 0.167): 66.4 mPa·s; electrical conductivity (313.15 K, x1 = 0.1667): 0.167 S/m; viscosity (313.15 K, x1 = 0.167): 49.2 mPa·s; electrical conductivity (323.15 K, x1 = 0.1667): 0.232 S/m; electrical conductivity (333.15 K, x1 = 0.1667): 0.317 S/m; viscosity (333.15 K, x1 = 0.167): 28.6 mPa·s
